How the values were obtained:
[1] = molecular target: T1, HMG-CoA reductase (rat liver microsomes) (Rattus norvegicus, UniProt P51639); test: Test of activity of inhibiting HMG-CoA reductase (rate of decline of OD340); format: biochemical; conditions: final concentration in system 80 μg/mL
T1 construct: taking out liver of male rat, washing with KESD buffer solution; from tissue; host or cells: liver of male rat (microsomal fraction, glycerol/37 °C treatment, 35-50% ammonium sulfate fraction)
T1 sequence (P51639 1-887): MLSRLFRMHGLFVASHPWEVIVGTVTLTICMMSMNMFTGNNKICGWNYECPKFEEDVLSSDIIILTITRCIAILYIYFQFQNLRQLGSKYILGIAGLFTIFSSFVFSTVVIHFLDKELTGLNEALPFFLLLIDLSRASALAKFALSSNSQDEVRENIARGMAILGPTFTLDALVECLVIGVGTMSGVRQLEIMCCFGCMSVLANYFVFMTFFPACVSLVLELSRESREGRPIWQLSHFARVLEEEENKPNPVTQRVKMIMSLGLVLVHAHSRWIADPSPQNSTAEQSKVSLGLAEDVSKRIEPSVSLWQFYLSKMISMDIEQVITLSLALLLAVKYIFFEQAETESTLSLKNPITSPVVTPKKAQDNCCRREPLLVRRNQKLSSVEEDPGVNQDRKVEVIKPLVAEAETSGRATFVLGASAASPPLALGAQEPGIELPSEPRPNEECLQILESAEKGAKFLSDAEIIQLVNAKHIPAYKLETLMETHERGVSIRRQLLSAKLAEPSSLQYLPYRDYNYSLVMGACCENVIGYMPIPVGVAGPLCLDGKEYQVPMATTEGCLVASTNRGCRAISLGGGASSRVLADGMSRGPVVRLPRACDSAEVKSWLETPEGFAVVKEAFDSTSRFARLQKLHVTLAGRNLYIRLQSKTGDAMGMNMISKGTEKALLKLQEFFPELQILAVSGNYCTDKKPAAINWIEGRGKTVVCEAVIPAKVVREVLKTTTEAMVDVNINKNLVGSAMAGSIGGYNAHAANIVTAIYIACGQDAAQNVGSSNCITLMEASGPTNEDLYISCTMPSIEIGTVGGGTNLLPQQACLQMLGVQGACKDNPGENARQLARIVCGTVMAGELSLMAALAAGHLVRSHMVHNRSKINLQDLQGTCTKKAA
Method: Rat liver microsomes (HMG-CoA reductase), could be commercially available or prepared by the following preparation method: taking out liver of male rat, washing with KESD buffer solution, centrifuging under 1200 g for 15 minutes, collecting supernatant, then centrifuging under 105,000 g twice, 90 minutes for each time, and collecting centrifugation deposit. The centrifugation deposit was added with 8.3% of glycerol, heated with 37° C. bath for 1 hour. The crude product of rat liver microsomes was purified with saturated ammonium sulfate, and 35-50% of purified fraction was collected. The purified fraction obtained could be stored in −80° C. refrigerator.
Compound of Formula II was dissolved in 75% ethanol solution, with initial concentration of 8.0 mg/mL, and diluted in gradient manner, to reach 4.0 mg/mL, 2.0 mg/mL, 1.0 mg/mL; lovastatin was used as positive control, dissolved with 75% ethanol solution to reach concentration of 2.0 mg/mL; in the test system, total volume was 250 μL, concentrations of ingredients were separately: potassium chloride 200 mM, potassium dihydrogen phosphate 160 mM, ethylenediamine tetraacetic acid 4 mM, dithiothreitol 10 mM, […] and 3-hydroxy-3-methylglutary coenzyme A as two substrates separately had concentrations of: 200 μM and 50 μM, pH6.8, 30 μL of enzyme was added, 4 test groups were separately added with 10 μL of new compound solutions with different concentrations, the positive control group was added with 10 μL of lovastatin solution, the blank control group was added with 10 μL of 75% ethanol solution, and dynamitic changes of OD340 were detected with Versamax ELISA at 37° C. condition. The rate of decline of OD340 (expressed in slope value) as detected within 5 minutes was used to evaluate the activity of HMG-CoA reductase, and then to evaluate the activity of enzyme inhibitor and the results were shown in Table 2.

[2] = molecular target: T2, Porcine pancreatic lipase (Sus scrofa, UniProt P00591); test: Test of activity of inhibiting lipase (copper oleate colorimetry, olive oil substrate); format: biochemical, pig; conditions: final concentration of inhibitor in the system 1.85 μg/mL
T2 construct: purchased Sigma
T2 sequence (P00591 1-450): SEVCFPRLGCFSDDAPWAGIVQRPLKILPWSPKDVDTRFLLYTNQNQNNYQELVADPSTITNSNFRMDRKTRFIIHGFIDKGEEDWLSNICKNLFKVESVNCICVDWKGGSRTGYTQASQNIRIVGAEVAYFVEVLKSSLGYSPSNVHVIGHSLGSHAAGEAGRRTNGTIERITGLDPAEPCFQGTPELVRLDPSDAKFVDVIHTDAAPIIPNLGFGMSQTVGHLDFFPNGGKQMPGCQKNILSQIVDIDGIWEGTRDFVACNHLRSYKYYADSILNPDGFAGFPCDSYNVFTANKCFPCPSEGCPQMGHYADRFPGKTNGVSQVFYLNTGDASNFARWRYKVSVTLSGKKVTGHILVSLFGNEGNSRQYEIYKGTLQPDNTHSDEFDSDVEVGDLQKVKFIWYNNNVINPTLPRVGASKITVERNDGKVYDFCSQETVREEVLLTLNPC
Method: 2.1 Preparation of light absorbance working curve for fatty acid: a series of oleic acid-toluene solutions with different concentrations (0-3.5 mmol/L, separately being 0, 0.225, 0.45, 0.675, 0.9, 1.125, 1.35, 1.8, 2.25, 2.7, and 3.5 mmol/L), 4 mL of each was taken and placed in conical flask, added with 1 mL of color developing agent, stirred with magnetic force for 3 minutes, oleic acid molecules and copper ions formed a green complex compound, after centrifugation, organic phase of upper layer was taken and measured at 714 nm to determine light absorbance.
2.2 Enzyme solution was 0.5 mg/mL pancreatic lipase solution; buffer solution was 0.07M NaH2PO4—K2HPO4 phosphate buffer solution (pH 7.0); color developing agent was 5% copper acetate solution, which was regulated with pyridine to have pH 6.1.
3 mL of 0.07M phosphate buffer solution and 1 mL of olive oil were pre-heated at a constant temperature of 37° C. for 5 minutes in water bath under agitation with a magnetic stirrer, added with 1.3 mL of enzyme solution (negative control was that without enzyme inhibitor; positive control is that added with 100 μL of 0.1 mg/mL orlistat solution; […]), stirred with magnetic force for 10 minutes, immediately added with 8 mL of toluene, stirred continuously for 2 minutes, the reaction was terminated, the generated oleic acid was extracted. The solutions were transferred to centrifuge tube, centrifuged under 4000 rpm for 10 minutes, and the organic phase and water phase were layered and clarified. 4 mL of the upper layer organic phase was taken and placed in a small conical flask, added with 1 mL of color developing agent, stirred with magnetic stirrer for 3 minutes, the generated oleic acid reacted with copper ions to form green complex compound. After centrifugation under 4000 rpm for 10 minutes, the upper layer of toluene solution containing copper oleate was taken, and measured with a spectrophotometer at 714 nm to determine its light absorbance. A blank solution without lipase was prepared as control by the same method, and concentration of fatty acid could be determined by referring to light absorbance working curve of oleic acid.
Enzyme activity unit of lipase was defined as follows: an enzyme amount to release 1 μmol fatty acid under certain condition was defined as 1 unit of lipase activity (U).
The following formula was used to calculate enzyme activity: X=(cV)/(tV′)
wherein: X represents enzyme activity of lipase, U/mL; c represents concentration of fatty acid, […]; V represents volume of fatty acid solution, mL; V′ represents amount of enzyme solution, mL; t represents action time, minute. Inhibition rate=[(enzyme activity of lipase−enzyme activity of lipase after inhibition)/enzyme activity of lipase]×100%

CC[C@H](C)C(=O)O[C@H]1C[C@@H](C)C=C2C=C[C@H](C)[C@H](CC[C@@H]3C[C@@H](O)CC(=O)O3)[C@H]21 [Lovastatin, lovastatin, reference compound]
Inhibition rate [1]: 54.4%
Slope (rate of decline of OD340) ([1]; blank control slope 16.0): 7.3

CCCCCCCCCCC[C@@H](C[C@@H]1OC(=O)[C@H]1CCCCCC)OC(=O)[C@H](CC(C)C)NC=O [Orlistat, orlistat, reference compound]
Absorbance ([2]; 714 nm, blank control 0.6680): 0.2042
Inhibition rate [2]: 69.84%
Enzyme activity ([2]; blank control 1.69): 0.50 U/mL
Concentration of generated oleic acid ([2]; blank control 2.75): 0.81 mM

— patent US11845774B2, “Sterol derivatives and preparation method and uses thereof” (BEIJING PEKING UNIVERSITY WBL BIOTECH CO., LTD., priority 2011, dated 2023)
